IC50, Activity and EC50 data for 8 compounds are collected here from ChEMBL document CHEMBL6096716, “Second-Generation Cap Analogue Prodrugs for Targeting Aberrant Eukaryotic Translation Initiation Factor 4E Activity in Cancer” (ACS Med Chem Lett, 2025).

Activity calls are given as the source filed them. The calls are words filed in the database; no cut-off is given here.

In assay [1] the target is T1, Eukaryotic translation initiation factor 4E (Homo sapiens, UniProt P06730). Briefly: Competitive inhibition of human 10 his-tagged eIF4E extracted from Escherichia coli BL21 (DE3) cells incubated for 40 mins by fluorescence polarization assay. A general note: Fluorescence polarisation rises when a labelled molecule tumbles more slowly, as on binding a larger partner.

For assay [2], the system named is A2058. Briefly: Antiproliferative activity against human A2058 cells harbouring BRAF V600E mutant assessed as cell death at 50 uM incubated for 48 hrs by Celltiter-glo assay. It is filed as functional, cell-based. (In ATP-based viability assays light output follows the ATP content of the culture.)
In assay [3] the test system is A2058. Briefly: Antiproliferative activity against human A2058 cells harbouring BRAF V600E mutant assessed as cell death incubated for 48 hrs by Celltiter-glo assay. It is filed as functional, cell-based. The note with it: for EC50: A2058, 48 h; for Activity: dose 10-60 µM.
Assay [4] concerns A2058. In words: Downregulation of ODC1 expression in human A2058 cells incubated for 6 hrs by Western blot analysis. It is filed as functional, cell-based. For orientation: A western blot detects proteins with antibodies after separation by electrophoresis.
In a further assay the test system is SK-MEL-2. In words: Antiproliferative activity against human SK-MEL-2 cells at 1.0 to 1.8 uM incubated for 48 hrs by Celltiter-glo assay. It is filed as functional, cell-based. The note with it: dose 1-1.8 µM.
Assay [5] concerns A2058. Briefly: Downregulation of CCND3 expression in human A2058 cells incubated for 6 hrs by Western blot analysis. It is filed as functional, cell-based.
The subject of assay [6] is A2058. Briefly: Effect on c-Myc expression in human A2058 cells incubated for 6 hrs by Western blot analysis. It is filed as functional, cell-based.
Assay [7] concerns A2058. In words: Downregulation of CCND1 expression in human A2058 cells incubated for 6 hrs by Western blot analysis. It is filed as functional, cell-based.
The subject of another assay is A-375. In words: Antiproliferative activity against human A-375 cells incubated for 48 hrs by Celltiter-glo assay. The conditions noted are these: A-375, 48 h. It is filed as functional, cell-based.
In assay [8] the target is T1, Eukaryotic translation initiation factor 4E. Briefly: Induction of thermal stabilization of eIF4E in human HeLa cell lysates incubated for 1 hr at 42 to 52 degreeC by CETSA based Western blot analysis. It is filed as subcellular.

T1 sequence (P06730 whole entry): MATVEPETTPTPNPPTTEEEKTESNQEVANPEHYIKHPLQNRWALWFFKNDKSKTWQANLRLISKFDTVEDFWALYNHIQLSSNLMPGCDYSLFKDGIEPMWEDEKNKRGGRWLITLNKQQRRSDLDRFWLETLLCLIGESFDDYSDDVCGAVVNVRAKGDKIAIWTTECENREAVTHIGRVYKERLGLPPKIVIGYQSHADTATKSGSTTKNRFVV

Broadly, the IC50 is the concentration that inhibits the measured activity by half. A lower IC50 goes with greater potency. For the compound `Nc1nc2c(c(=O)[nH]1)[n+](Cc1cc3cc(Cl)ccc3o1)cn2Cc1ccccc1CCP(=O)(O)O`, the IC50 in [1] amounted to 17.2 µM.
`CC(C)(C)C(=O)OCOP(=O)(CCc1cccc(-n2c[n+](Cc3cc4cc(Cl)ccc4o3)c3c(=O)[nH]c(N)nc32)c1)OCOC(=O)C(C)(C)C`: the result in the assay on A2058 [2] was Active.
Take `CC(C)(C)C(=O)OCOP(=O)(Cc1cccc(Cn2c[n+](Cc3cc4cc(Cl)ccc4o3)c3c(=O)[nH]c(N)nc32)c1)OCOC(=O)C(C)(C)C`: the Activity entry with A2058 [2] is recorded as “Active; Compound Found To Be Less Active”.
With `CC(C)(C)C(=O)OCOP(=O)(OCOC(=O)C(C)(C)C)c1cccc(Cn2c[n+](Cc3cc4cc(Cl)ccc4o3)c3c(=O)[nH]c(N)nc32)c1`, the Activity result in the assay on A2058 [2] was “Active; Compound Found To Be Less Active”.
As a reminder, the EC50 is the concentration that produces a half-maximal response. Consider `CC(C)(C)C(=O)OCOP(=O)(CCc1ccccc1Cn1c[n+](Cc2cc3cc(Cl)ccc3o2)c2c(=O)[nH]c(N)nc21)OCOC(=O)C(C)(C)C`, for which, in the assay on A2058 [3], the EC50 came to 51.3 µM and the Activity entry is “Dose-dependent-effect”.
With `CC(C)(C)C(=O)OCOP(=O)(CCc1cccc(Cn2c[n+](Cc3cc4cc(Cl)ccc4o3)c3c(=O)[nH]c(N)nc32)c1)OCOC(=O)C(C)(C)C`, the result in the assay on A2058 [4], in the assay on A2058 [5] and in the assay with A2058 [7] was Active. For the same compound, the values for the Activity entry in the assay on A2058 [2] and in the assay with A2058 [3] were “Active; Compound Showed Near Complete Cell Death” and “Dose-dependent-effect”, respectively. Further, the result in the assay with SK-MEL-2 and in the assay on A2058 [6] was inactive. The results for the EC50 in the assay on A-375 and in the assay with A2058 [3] were 54 µM and 40 µM, respectively.
`Nc1nc2c(c(=O)[nH]1)[n+](Cc1cc3cc(Cl)ccc3o1)cn2Cc1cccc(CCP(=O)(O)O)c1` registered an IC50 in [1] of 4.1 µM. Further, the result in assay [8] was Active.
As for `CC(C)(C)C(=O)OCOP(=O)(CCc1ccc(Cn2c[n+](Cc3cc4cc(Cl)ccc4o3)c3c(=O)[nH]c(N)nc32)cc1)OCOC(=O)C(C)(C)C`, the outcome in the assay with A2058 [3] was inactive.
